Measured values: US20180188224A1, “METHOD FOR CONSTRUCTING A SENSORY SPACE” (CENTRE SCIENTIFIQUE ET TECHNIQUE DU BATIMENT (CSTB), priority 2015, published 2018)
Several values for one entry are separate records, joined by “and”; a condition that tells them apart may be missing. Equal entries are not always repeated.

Columns and labels:
[1] = test system: four non-smoking volunteers (2 men and 2 women); experiment: Taste identification questionnaire, trained panel (count of 6 repetitions per subject in which the stimulus was given each taste label; level of recognition %); format: in vivo, human
Method: (§1) In this test, four non-smoking volunteers (2 men and 2 women) were chosen from 12 people for their performance in taste recognition. Their mean age was 32 years, ranging from 24 to 40 years. […] These four people were trained for several months to recognize and detect the four basic tastes, and also regarding the procedures of sensory and physiological analysis.
(§2) The four basic tastes (sweet, salty, sour and bitter) were used. The solutions were prepared with citric acid for the sour taste, caffeine for the bitter taste, sodium chloride for the salty taste and sucrose for the sweet taste (all purchased from Sigma Aldrich, France) in Evian water. Evian water was also used as control and blank. Each taste was prepared with the four concentrations mentioned in table 1.
(§3) The amount of solution to be tested was standardized at 10 ml. In order to impregnate the whole of the oral cavity, the subjects kept the solution in their mouth for 5 s before swallowing it.
(§4) The sessions were individual and the subjects were asked not to eat or drink anything for at least 1 h before the test. They arrived 15 min before the start of the session in order to acclimatize to the environmental conditions, in particular the temperature of the room (kept constant at 23° C.) and to be resting seated on a comfortable chair. The 16 solutions for testing and two additional samples of water containing solely Evian water, added to the references, were presented monadically following a test order determined from a “balanced incomplete block design”. During a session, 9 samples out of 18 were presented to minimize sensory fatigue. In addition, a sample of Evian was always tested as a “blank” sample in order to avoid the first-order effect (Lawless, H. T. & Heymann, H., 2010, Sensory evaluation of food: Principles and practices. Springer, New York) and was excluded from the analysis. A light signal was sent to give the instruction to test the sample. When the disturbance to the nervous system returned to its baseline level (after approximately 1 min), a second light signal indicated to the subjects that they should complete a questionnaire regarding the stimulus tested previously. The first part of the questionnaire was linked to the identification of the taste (i.e. determining the quality of the taste); the subjects had to choose between five labels: sweet, salty, sour, bitter or neutral. They then had to assign a taste intensity score on an 11-point scale (from 0 “not intense” (i.e. taste of Evian only) to 10 “very intense”) and finally to give a hedonic score on an 11-point scale (from 0 “very unpleasant” to 10 “very pleasant”, 5 being “neutral”).
(§5) This procedure was repeated for each of the 9 stimuli. A session lasted approximately 45 min including a debriefing at the end of the test to ensure understanding of the sense of the signal variations. The experiment was repeated 12 times per subject, meaning that the data are composed of 6 data sets per subject and per product and 12 data sets for the Evian product per subject. Thus, the database consists of 432 samples.

[2] = test system: four non-smoking volunteers (2 men and 2 women); experiment: Taste intensity score, 11-point scale (0 not intense to 10 very intense); format: in vivo, human; settings: concentration 4; averaged over 4 subjects, 6 repetitions each
Method: as §1, §2, §3, §4, §5
(§6) The effect of the taste on the hedonic and intensity scores was analyzed by an analysis of variance (ANOVA) including the product effect, the subject effect and the product-subject interaction. The subject effect was fixed because there were only 4 subjects and the results could only be applied to a particular schema. The differences were considered to be significant at a level of 0.05.

[3] = test system: four non-smoking volunteers (2 men and 2 women); experiment: Hedonic score, 11-point scale (0 very unpleasant to 10 very pleasant, 5 neutral); format: in vivo, human
Method: as §1, §2, §3, §4, §5, §6

[4] = cited from earlier work; for detection threshold: representative compound of a primary taste
subject 3 = experiment: Skin blood microcirculation (SKBF) response to taste stimuli, PCA sensory space (ESRP); format: in vivo, human; settings: concentration 3
Source text: A Periflux PF 5010 (Perimed AB, Sweden) system was chosen, which enables non-invasive monitoring of blood perfusion in the capillaries, arterioles and venules.
The unit of blood perfusion is arbitrary and corresponds to the product of the mean rate of displacement of the red blood cells by their concentration. The system Periflux PF 5010 has a 780 nm, 1 mm diameter laser beam without thermal effect. An optical fiber probe PR407 is used. The low-energy laser beam is transmitted by the probe to the tissue. A portion of the light reflects off the static structures and another portion of the light reflects off the moving blood cells. When the light reflects off a moving cell, the wavelength is modified, which corresponds to the Doppler effect. The scattered light collected by the optical fiber is used to calculate the perfusion value. The measurement is expressed in perfusion units (PU). Recording was carried out on the pad of the index finger of the non-dominant hand, due to the high level of vascularization of this zone. The perfusion signals were recorded by an 8-channel PowerLab PL35088/35 acquisition system; the data were collected at a frequency of 1 kHz and analyzed by the LabChart® software (AD instruments Ltd, United Kingdom).
. Then, the peak was analyzed manually by selecting the whole of the peak and analyzing it with the LabChart® software (FIG. 1).
Several shape parameters were extracted from the signal (i.e. amplitude, duration, gradient). […]
The SKBF responses were analyzed individually by one-way ANOVA (product effect), the subjects having their own “preferential channel” (Lacey, J. I., Bateman, D. E. & VanLEHN, R., 1953, Autonomic response specificity: An experimental study. Psychosomatic Medicine, 15, 8-21). […]

## OC[C@H]1O[C@@](CO)(O[C@H]2O[C@H](CO)[C@@H](O)[C@H](O)[C@H]2O)[C@@H](O)[C@@H]1O [Sucrose, sucrose]
[1]; Subject 1, dilution 1
  Individual recognition score: Bitter: 0
  Individual recognition score: Neutral: 0
  Individual recognition score: Salty: 0
  Individual recognition score: Sour: 0
  Individual recognition score: Sweet: 6
[1]; Subject 1, dilution 2
  Individual recognition score: Bitter: 0
  Individual recognition score: Neutral: 0
  Individual recognition score: Salty: 0
  Individual recognition score: Sour: 0
  Individual recognition score: Sweet: 6
[1]; Subject 1, dilution 3
  Individual recognition score: Bitter: 0
  Individual recognition score: Neutral: 0
  Individual recognition score: Salty: 0
  Individual recognition score: Sour: 0
  Individual recognition score: Sweet: 6
[1]; Subject 1, dilution 4
  Individual recognition score: Bitter: 0
  Individual recognition score: Neutral: 0
  Individual recognition score: Salty: 0
  Individual recognition score: Sour: 0
  Individual recognition score: Sweet: 6
[1]; Subject 2, dilution 1
  Individual recognition score: Bitter: 0
  Individual recognition score: Neutral: 0
  Individual recognition score: Salty: 0
  Individual recognition score: Sour: 0
  Individual recognition score: Sweet: 6
[1]; Subject 2, dilution 2
  Individual recognition score: Bitter: 0
  Individual recognition score: Neutral: 0
  Individual recognition score: Salty: 0
  Individual recognition score: Sour: 0
  Individual recognition score: Sweet: 6
[1]; Subject 2, dilution 3
  Individual recognition score: Bitter: 0
  Individual recognition score: Neutral: 0
  Individual recognition score: Salty: 0
  Individual recognition score: Sour: 0
  Individual recognition score: Sweet: 6
[1]; Subject 2, dilution 4
  Individual recognition score: Bitter: 0
  Individual recognition score: Neutral: 0
  Individual recognition score: Salty: 0
  Individual recognition score: Sour: 0
  Individual recognition score: Sweet: 6
[1]; Subject 3, dilution 1
  Individual recognition score: Bitter: 0
  Individual recognition score: Neutral: 3
  Individual recognition score: Salty: 0
  Individual recognition score: Sour: 0
  Individual recognition score: Sweet: 3
[1]; Subject 3, dilution 2
  Individual recognition score: Bitter: 0
  Individual recognition score: Neutral: 0
  Individual recognition score: Salty: 0
  Individual recognition score: Sour: 0
  Individual recognition score: Sweet: 6
[1]; Subject 3, dilution 3
  Individual recognition score: Bitter: 0
  Individual recognition score: Neutral: 0
  Individual recognition score: Salty: 0
  Individual recognition score: Sour: 0
  Individual recognition score: Sweet: 6
[1]; Subject 3, dilution 4
  Individual recognition score: Bitter: 0
  Individual recognition score: Neutral: 0
  Individual recognition score: Salty: 0
  Individual recognition score: Sour: 0
  Individual recognition score: Sweet: 6
[1]; Subject 4, dilution 1
  Individual recognition score: Bitter: 0
  Individual recognition score: Neutral: 0
  Individual recognition score: Salty: 0
  Individual recognition score: Sour: 0
  Individual recognition score: Sweet: 6
[1]; Subject 4, dilution 2
  Individual recognition score: Bitter: 0
  Individual recognition score: Neutral: 0
  Individual recognition score: Salty: 0
  Individual recognition score: Sour: 0
  Individual recognition score: Sweet: 6
[1]; Subject 4, dilution 3
  Individual recognition score: Bitter: 0
  Individual recognition score: Neutral: 0
  Individual recognition score: Salty: 0
  Individual recognition score: Sour: 0
  Individual recognition score: Sweet: 6
[1]; Subject 4, dilution 4
  Individual recognition score: Bitter: 0
  Individual recognition score: Neutral: 0
  Individual recognition score: Salty: 0
  Individual recognition score: Sour: 0
  Individual recognition score: Sweet: 6
[1]; four subjects, dilution 1
  Level of Recognition %: Bitter: 0%
  Level of Recognition %: Neutral: 12%
  Level of Recognition %: Salty: 0%
  Level of Recognition %: Sour: 0%
  Level of Recognition %: Sweet: 88%
[1]; four subjects, dilution 2
  Level of Recognition %: Bitter: 0%
  Level of Recognition %: Neutral: 0%
  Level of Recognition %: Salty: 0%
  Level of Recognition %: Sour: 0%
  Level of Recognition %: Sweet: 100%
[1]; four subjects, dilution 3
  Level of Recognition %: Bitter: 0%
  Level of Recognition %: Neutral: 0%
  Level of Recognition %: Salty: 0%
  Level of Recognition %: Sour: 0%
  Level of Recognition %: Sweet: 100%
[1]; four subjects, dilution 4
  Level of Recognition %: Bitter: 0%
  Level of Recognition %: Neutral: 0%
  Level of Recognition %: Salty: 0%
  Level of Recognition %: Sour: 0%
  Level of Recognition %: Sweet: 100%
[2]
  intensity score: 8.3±0.9
[3]; concentration 4 (highest)
  hedonic score: 7.0±2.6
[4]; literature (Purves 2005; Robinson 2005)
  detection threshold concentration of the basic taste: approximately 20 mmol·l^−1
[4]
  detection threshold: 6.846 g/L

## Cn1c(=O)c2c(ncn2C)n(C)c1=O [Caffeine, caffeine]
[1]; human, in vivo
  Individual recognition score: Bitter: 6 (9×) and 4 (2×) and 5 (4×) and 3
  Individual recognition score: Neutral: 0 (11×) and 1 (3×) and 3 and 2
  Individual recognition score: Salty: 0
  Individual recognition score: Sour: 0 (14×) and 1 (2×)
  Individual recognition score: Sweet: 0 (15×) and 1
  Level of Recognition %: Bitter: 83% and 84%
  Level of Recognition %: Salty: 0%
  Level of Recognition %: Sour: 0% and 4%
  Level of Recognition %: Sweet: 0% and 4%
[3]; concentration 3
  hedonic score: 3.5±1.8
[3]; concentration 4 (highest)
  hedonic score: 3.5±2.3
Subject 3
  SKBF disturbance (signal width, area of the peak; ANOVA): significantly stronger disturbance than the others
[4]
  detection threshold: 0.05 to 0.35 g/L
